From patent US5071841A, “Sulfur-containing heterocyclic compounds useful for the treatment of osteoporosis, and their production” (priority 1988, dated 1991)
Where two headings read alike, the source gives them in different places.

Legend:
[1] = test system: right and left humeri (radii and ulnae) of rat fetus; test: Bone resorption inhibition: 45Ca release from fetal rat bone in culture (method of Raisz); format: cell-based, Sprague-Dawley rat; conditions: for activity at 10 µg/mL: Rattus norvegicus, 48 h, read-out: 45Ca released (% of control value)
Method: Thus, a Sprague-Dawley rat at day 19 of pregnancy was subcutaneously dosed with 50 μCi of ^45 Ca (a radioisotope of calcium, in CaCl2). On the next day, the animal was laparotomized and the fetuses were removed aseptically. The right and left humeri (radii and ulnae) of each rat fetus were dissected from the body under the dissection microscope. The connective tissue and cartilages were removed as far as possible to prepare bone culture specimens. Each piece of bone was incubated in 0.6 ml of BGJb medium Fitton-Jackson modification (the tradename owned by GIBCO Laboratories, U.S.A.) containing 2 mg/ml of bovine serum albumin at 37° C. for 24 hours. […] The radioactivities of ^45 Ca in the culture medium and bone were determined and the ratio (%) of ^45 Ca released from the bone to the medium was calculated according to the following formula. […] A=ratio (%) of ^45 Ca released from the bone to the medium B=^45 Ca count in the medium
C=^45 Ca count in the bone
The bones from the fetuses of the same litter were similarly incubated without addition of the test compound for two days and served as controls.
The values for 5 bones per group were expressed in mean. The ratio (%) of this value for the treatment group to the control value was determined.

[2] = test system: mice; test: Oral toxicity in mice; format: in vivo; conditions: 300 mg/kg
Text: The compound (I) and salt according to the present invention has excellent bone resorption inhibitory activity. Thus, they have the action to inhibit the dissolution and diminution of bone in the body. Furthermore, compound (I) and salts thereof have bone formation promoting activity.

[3] = test system: oophorectomized Sprague-Dawley rats, right femur; test: Treatment of osteoporosis in oophorectomized rats (femur bone density, dry weight, ashes); format: in vivo; conditions: daily dose 100 mg/kg orally; for Ashes / Dry weight: 18 doses, distal 1/3 of right femur
Method: Study on Treatment of Osteoporosis
Oophorectomy was performed on Sprague-Dawley rats at 10 weeks of age and starting from the following day, the rats were orally dosed with the test compound 6 days a week for 3 weeks, or a total of 18 days. On the day following the last dosing, the right femur was removed from each rat and subjected to soft X-ray photography with a soft X-ray apparatus (Softex CSM, Softex). Using a microdensitometer (PDM-5, Konica Medical), the transverse section of the femur on the soft X-ray film was scanned at a point one-fifth from the distal end (metaphysis) and from the density wave pattern, bone density was calculated according to the microdensitometric method described by Inoue et al. [Journal of Japanese Orthopedic Association (J Jpn. Orthop. Ass.) 57, 1923 (1983)].
After soft X-ray photographing, the 1/3 distal part of the femur was sectioned off at right angles with the major axis. After the bone marrows were washed off with a rinse pump, the femur section was put into a porcelain crucible, placed in a oven and dried at 110° C. for 24 hours. The dry weight was then determined.
The porcelain crucible containing the bone was transferred to a muffle furnace (FP-41, Yamato Chemicl) and heated at 500° C. for 3 hours and at 800° C. for 2 hours for calcification of the bone and the ashes were weighed.
The mean ± standard errors of the measured values for the right femurs of 7 rats per group were determined.

[4] = final concentration 10 μg/ml, two additional days at 37° C., mean of 5 bones per group, lower = more inhibition
[5] = Table 4, oophorectomy control 76.3, sham 85.7
[6] = Table 4, oophorectomy control 114.2, sham 131.4

Compound: CCOP(=O)(Cc1ccc(NC(=O)[C@@H]2S[C@@H](C)C(=O)c3cc(C4CCCCC4)ccc32)cc1)OCC (relative stereo) [Example 23]
- activity at 10 µg/mL [1]: 65%

Compound: O=C1CSC(C(=O)O)c2ccc(Cl)cc21 (stereo not drawn) [Example 1, 6-chloro-3,4-dihydro-1H-2-benzothiopyran-4-one-1-carboxylic acid]
- activity at 10 µg/mL [1, 4]: 84%

Compound: O=C1CSC(C(=O)Nc2cccnc2)c2ccc(C3CCCCC3)cc21 (stereo not drawn) [Example 10, 6-cyclohexyl-N-(3-pyridyl)-3,4-dihydro-1H-2-benzothiopyran-4-one-1-carboxamide]
- activity at 10 µg/mL [1, 4]: 62%

Compound: O=C1CSC(C(=O)Nc2nccs2)c2ccc(C3CCCCC3)cc21 (stereo not drawn) [Example 12]
- activity at 10 µg/mL [1, 4]: 84%

Compound: COc1ccc(-c2csc(NC(=O)C3SCC(=O)c4cc(C5CCCCC5)ccc43)n2)cc1OC (stereo not drawn) [Example 14]
- activity at 10 µg/mL [1, 4]: 81%

Compound: O=C1CSC(C(=O)N2CCN(c3ccc(F)cc3)CC2)c2ccc(C3CCCCC3)cc21 (stereo not drawn) [Example 18]
- death [2]: no death was encountered

Compound: O=C1CSC(C(=O)Nc2ccc3c(c2)OCO3)c2ccc(C3CCCCC3)cc21 (stereo not drawn) [Example 19]
- activity at 10 µg/mL [1, 4]: 70%

Compound: O=C1CSC(C(=O)Nc2ccc(Cl)cc2)c2ccc(C3CCCCC3)cc21 (stereo not drawn) [Example 21]
- activity at 10 µg/mL [1, 4]: 73%

Compound: CCOP(=O)(Cc1ccc(NC(=O)C2SCC(=O)c3cc(C4CCCCC4)ccc32)cc1)OCC (stereo not drawn) [Example 22]
- activity at 10 µg/mL [1]: 57%
- Ashes ([3]; Table 2, oophorectomy control 74.3, sham 80.0): 82.4 mg
- Dry weight ([3]; Table 2, oophorectomy control 107.7, sham 116.2): 120.0 mg
- Bone density ([3]; Table 2, 6 days a week for 3 weeks, femur metaphysis, oophorectomy control 1.062, sham 1.304): 1.336
- death [2]: no death was encountered

Compound: COc1ccc(NC(=O)C2SCC(=O)c3cc4c(cc32)CCCC4)cc1OC (stereo not drawn) [Example 28]
- activity at 10 µg/mL [1, 4]: 79%

Compound: O=C1CSC(C(=O)N2CCN(c3ccc(F)cc3)CC2)c2cc3c(cc21)CCCC3 (stereo not drawn) [Example 30]
- activity at 10 µg/mL [1, 4]: 75%

Compound: COP(=O)(OC)c1ccc(NC(=O)C2SCC(=O)c3cc4c(cc32)CCCC4)cc1 (stereo not drawn) [Example 31]
- activity at 10 µg/mL [1]: 64%

Compound: CCOP(=O)(OCC)c1ccc(NC(=O)C2SCC(=O)c3cc4c(cc32)CCCC4)cc1 (stereo not drawn) [Example 33]
- activity at 10 µg/mL [1]: 53%

Compound: CCOP(=O)(Cc1ccc(NC(=O)C2SCC(=O)c3cc4c(cc32)CCCC4)cc1)OCC (stereo not drawn) [Example 35]
- activity at 10 µg/mL [1]: 58%

Compound: CC(C)OP(=O)(Cc1ccc(NC(=O)C2SCC(=O)c3cc4c(cc32)CCCC4)cc1)OC(C)C (stereo not drawn) [Example 36]
- activity at 10 µg/mL [1]: 73%

Compound: CCOP(=O)(OCC)c1ccc(NC(=O)C2SCC(=O)c3cc(Cl)ccc32)cc1 (stereo not drawn) [Example 46]
- activity at 10 µg/mL [1]: 76%

Compound: CCCOP(=O)(OCCC)c1ccc(NC(=O)C2SCC(=O)c3cc4c(cc32)OCCO4)cc1 (stereo not drawn) [Example 50]
- activity at 10 µg/mL [1]: 73%

Compound: COc1ccc(CCN(C)C(=O)C2SCC(=O)c3cc(C4CCCCC4)ccc32)cc1OC (stereo not drawn) [Example 55]
- activity at 10 µg/mL [1, 4]: 78%

Compound: CCOP(=O)(OCC)c1ccc(NC(=O)C2Cc3ccc(C4CCCCC4)cc3C(=O)CS2)cc1 (stereo not drawn) [Example 56, 7-cyclohexyl-N-(4-diethoxyphosphorylphenyl)-1,2,4,5-tetrahydro-3-benzothiepin-5-one-2-carboxamide]
- activity at 10 µg/mL [1]: 76%

Compound: O=C(Nc1ccc2c(c1)OCO2)C1SCC(O)c2ccc(C3CCCCC3)cc21 (stereo not drawn) [Example 59, 7-cyclohexyl-N-(3,4-methylenedioxyphenyl)-c-4-hydroxy-3,4-dihydro-1H-2-benzothiopyran-r-1-carboxamide]
- 45Ca released (% of control value) ([1]; final concentration 10 μg/ml, two additional days at 37° C., mean of 5 bones per group, lower = more inhibition, 2880 min): 64 % of control value

Compound: CCOP(=O)(Cc1ccc(NC(=O)C2SCC(=O)c3cc(C4CCCC4)ccc32)cc1)OCC (stereo not drawn) [Example 132]
- activity at 10 µg/mL [1]: 57%

Compound: CCOP(=O)(Cc1ccc(NC(=O)C2SCC(=O)c3cc(C4CCCCCC4)ccc32)cc1)OCC (stereo not drawn) [Example 138]
- activity at 10 µg/mL [1]: 63%

Compound: CCOP(=O)(Cc1ccc(NC(=O)C2SCC(=O)c3cc(C)ccc32)cc1)OCC (stereo not drawn) [Example 140]
- activity at 10 µg/mL [1]: 61%

Compound: CCOP(=O)(OCC)c1ccc(NC(=O)C2SCC(=O)c3cc(C(C)C)ccc32)cc1 (stereo not drawn) [Example 141]
- activity at 10 µg/mL [1]: 57%

Compound: CCOP(=O)(OCC)c1ccc(NC(=O)C2SCC(=O)c3cc(C(C)(C)C)ccc32)cc1 (stereo not drawn) [Example 143]
- activity at 10 µg/mL [1]: 44%

Compound: CCOP(=O)(CCc1ccc(NC(=O)C2SCC(=O)c3cc(C(C)(C)C)ccc32)cc1)OCC (stereo not drawn) [Example 144]
- activity at 10 µg/mL [1]: 52%

Compound: CCOP(=O)(Cc1ccc(NC(=O)C2SCC(=O)c3cc(C(C)(C)CC)ccc32)cc1)OCC (stereo not drawn) [Example 146]
- activity at 10 µg/mL [1]: 62%
- Ashes ([3]; Table 3, oophorectomy control 74.3, sham 88.3): 84.1 mg
- Dry weight ([3]; Table 3, oophorectomy control 112.3, sham 130.4): 128.2 mg

Compound: CCOP(=O)(Cc1ccc(NC(=O)C2SCC(=O)c3c(C)ccc(C)c32)cc1)OCC (stereo not drawn) [Example 150]
- activity at 10 µg/mL [1]: 71%

Compound: Cc1cc(C)c2c(c1)C(=O)CSC2C(=O)Nc1ccc(Cl)cc1 (stereo not drawn) [Example 153]
- activity at 10 µg/mL [1, 4]: 63%

Compound: Cc1cc2c(cc1C)C(C(=O)Nc1ccc(Cl)c(Cl)c1)SCC2=O (stereo not drawn) [Example 155]
- activity at 10 µg/mL [1, 4]: 80%

Compound: Cc1cc2c(cc1C)C(C(=O)Nc1ccc(C)c(Cl)c1)SCC2=O (stereo not drawn) [Example 157]
- activity at 10 µg/mL [1, 4]: 71%

Compound: COP(=O)(OC)c1ccc(NC(=O)C2SCC(=O)c3cc(C)c(C)cc32)cc1 (stereo not drawn) [Example 160]
- activity at 10 µg/mL [1]: 54%

Compound: CCOP(=O)(OCC)c1ccc(NC(=O)C2SCC(=O)c3cc(C)c(C)cc32)cc1 (stereo not drawn) [Example 161]
- activity at 10 µg/mL [1]: 50%
- Ashes [3, 5]: 83.7 mg
- Dry weight [3, 6]: 127.5 mg

Compound: CCOP(=O)(Cc1ccc(NC(=O)C2SCC(=O)c3cc(C)c(C)cc32)cc1)OCC (stereo not drawn) [Example 163]
- activity at 10 µg/mL [1]: 50%
- Ashes [3, 5]: 82.3 mg
- Dry weight [3, 6]: 127.6 mg

Compound: O=C1CSC(C(=O)Nc2ccc(Cl)cc2)c2cc3c(cc21)CCC3 (stereo not drawn) [Example 183]
- activity at 10 µg/mL [1, 4]: 47%

Compound: CCOP(=O)(Cc1cccc(NC(=O)C2SCC(=O)c3cc4c(cc32)CCCC4)c1)OCC (stereo not drawn) [Example 191]
- activity at 10 µg/mL [1]: 58%

Compound: CCOP(=O)(OCC)c1ccc(NC(=O)C2SCC(=O)c3cc4c(cc32)CCCCC4)cc1 (stereo not drawn) [Example 198]
- activity at 10 µg/mL [1]: 62%

Compound: CCOP(=O)(NC(=O)C1SCC(=O)c2cc(C3CCCCC3)ccc21)OCC (stereo not drawn) [Example 201, 6-cyclohexyl-N-diethoxyphosphoryl-3,4-dihyiro-1H-2-benzothiopyran-4-one-1-carboxamide]
- activity at 10 µg/mL [1]: 65%
